# According to patent publication US9409952B2, “Peptide-compound cyclization method” (Chugai Seiyaku Kabushiki Kaisha, priority 2011, dated 2016):
# Where two headings read alike, the source gives them in different places. Starred links: 1 amine or outer side, 2 acyl side, 3 side chain; linkers in the order of their positions; H or OH if unused. Positions of bridges follow the written chain, without caps; N, C: chain ends. Non-standard residues stand in square brackets, D forms with d. Residues, ends and D or L forms follow the SMILES beside them. *: point of attachment. Phe(4-(CH2)5CO) = O=C([C@H](Cc1ccc(CCCCCC(=O)[*:3])cc1)N[*:1])[*:2]; NMePhe(3-Cl) = CN[C@@H](Cc1cccc(Cl)c1)C(=O)O; NMeF = CN[C@@H](Cc1ccccc1)C(=O)O; NMeGABA = CN(CCCC(=O)[*:2])[*:1]; NMeI = CC[C@H](C)[C@H](NC)C(=O)O; NMeβAla = CN(CCC(=O)[*:2])[*:1]; NMeL = CN[C@@H](CC(C)C)C(=O)O; NMeV = CN[C@H](C(=O)O)C(C)C; NMeS = CN[C@@H](CO)C(=O)O; NMeA = CN[C@@H](C)C(=O)O; Piperidide = C1CCN(*)CC1; dNMeA = CN[C@H](C)C(=O)O; β3hA = C[C@H](N)CC(=O)O; Sar = CNCC(=O)O; tBu = CC(C)(C)*
# Key:
# [1] = PAMPA (parallel artificial membrane permeability assay); format: in vitro ADME; conditions: PAMPA
# Summary of the method: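 Artificial membrane was 10% (w/v) egg lecithin plus 0.5% (w/v) cholesterol in dodecane on a PVDF filter. A 10 mM DMSO stock was added at 0.5% (v/v) to donor buffer (50 mM MOPSO, pH 6.5, 5.0% glycocholic acid). After 18 h at 37 °C, LC/MS or LC/UV gave donor and acceptor levels for Pe.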
# [2] = Metabolic stability in human hepatic microsome; format: in vitro ADME; conditions: microsomes
# [3] = membrane permeation rate (Pe), 50 mM MOPSO buffer pH 6.5 with 5.0% glycocholic acid, 37° C., 18 hours, read-out: iPAMPA Pe
# [4] = pH 7.4, human hepatic microsome, NADPH(+), read-out: CL NADPH(+)
Compound,"Papp at 18 hours, 50 µM ([1]; pH 6.5) [×10⁻⁶ cm/s]","microsomal CLint at 1 uM ([2]; human, pH 7.4, CL NADPH(+)) [µL/min/mg]","Papp at 18 hours, 50 µM [1, 3] [×10⁻⁶ cm/s]","microsomal CLint at 1 uM [2, 4] [µL/min/mg]"
"CC[C@H](C)[C@@H]1NC(=O)[C@H](Cc2cccc(Cl)c2)N(C)C(=O)[C@H](CC(C)C)N(C)C(=O)C[C@@H](C(=O)N2CCCCC2)NC(=O)[C@H](CC(C)C)N(C)C(=O)[C@H](CC(C)C)N(C)C(=O)[C@H](CC(C)C)NC(=O)[C@H](C)N(C)C(=O)[C@@H](NC(=O)[C@H](CC(C)C)N(C)C(=O)[C@@H]2CCCN2C(=O)CO)CCCCNC1=O [DP-964, ^HOGly-Pro-MeLeu-*Lys-MeAla-Leu-MeLeu-MeLeu-Asp-piperidine-MeLeu-MePhe(3-Cl)-Ile* (cyclized at two * sites)]",8.9,38,–,–
CC(C)[C@@H]1NC(=O)[C@H](C)N(C)C(=O)CNC(=O)[C@H]([C@@H](C)O)NC(=O)[C@H](C(C)C)N(C)C(=O)[C@H](C)NC(=O)[C@@H](C)N(C)C(=O)C[C@@H](C(=O)N(C)[C@@H](Cc2ccccc2)C(=O)N(C)[C@@H](Cc2ccccc2)C(=O)N[C@@H](C)C(=O)N2CCCCC2)NC(=O)[C@H](Cc2ccccc2)N(C)C(=O)[C@H](C)N(C)C1=O [DP-505] ([dNMeA]A[NMeV]TG[NMeA]V[NMeA][NMeF]D[NMeF][NMeF]A-Piperidide; lactam N-10),–,–,6.8,18
CC[C@H](C)[C@@H]1NC(=O)[C@H](Cc2ccccc2)NC(=O)[C@H](Cc2ccccc2)N(C)C(=O)CCN(C)C(=O)C[C@@H](C(=O)N2CCCCC2)NC(=O)[C@H](C)NC(=O)[C@H](CC(C)C)N(C)C(=O)[C@H](CC(C)C)N(C)C(=O)CN(C)C(=O)[C@H]([C@@H](C)O)NC(=O)[C@H](C(C)C)N(C)C(=O)[C@@H]2CCCN2C1=O [DP-134] ([NMeβAla][NMeF]FIP[NMeV]T[Sar][NMeL][NMeL]AD-Piperidide; lactam N-12),–,–,13,18
CC(C)C[C@@H]1NC(=O)[C@H](CC(C)C)N(C)C(=O)[C@H](C(C)C)N(C)C(=O)[C@H](C)NC(=O)CN(C)C(=O)[C@H](Cc2ccccc2)NC(=O)[C@H]([C@@H](C)O)NC(=O)[C@H](CC(C)C)N(C)C(=O)[C@H](C)N(C)C(=O)C[C@@H](C(=O)N2CCCCC2)NC(=O)[C@H](CC(C)C)N(C)C1=O [DP-479] ([NMeA][NMeL]TF[Sar]A[NMeV][NMeL]L[NMeL]D-Piperidide; lactam N-11),–,–,46,183
CC[C@H](C)[C@H]1C(=O)N[C@@H]([C@@H](C)O)C(=O)N(C)CC(=O)N[C@H](C(=O)N2CCCCC2)CC(=O)N[C@H](C(C)C)C(=O)N[C@@H](CC(C)C)C(=O)N(C)[C@@H](CC(C)C)C(=O)N(C)[C@@H](Cc2ccccc2)C(=O)N[C@@H](C)C(=O)N(C)[C@@H](Cc2ccccc2)C(=O)N(C)[C@@H](CC(C)C)C(=O)N1C [DP-232] ([dV]L[NMeL][NMeF]A[NMeF][NMeL][NMeI]T[Sar]D-Piperidide; lactam N-11),–,–,18,77
CC(C)C[C@@H]1NC(=O)[C@H](C)NC(=O)C[C@@H](C(=O)N2CCCCC2)NC(=O)[C@H](Cc2ccccc2)N(C)C(=O)[C@H](CC(C)C)N(C)C(=O)[C@H](C)NC(=O)[C@H](Cc2ccccc2)N(C)C(=O)[C@H](CC(C)C)N(C)C1=O [DP-673] (AL[NMeL][NMeF]A[NMeL][NMeF]D-Piperidide; lactam N-8),–,–,30,631
CC(C)C[C@@H]1NC(=O)[C@H](C)NC(=O)[C@H]([C@@H](C)O)NC(=O)[C@H](C)N(C)C(=O)C[C@@H](C(=O)N2CCCCC2)NC(=O)[C@H](CC(C)C)N(C)C(=O)[C@H](CC(C)C)NC(=O)[C@H](C(C)C)N(C)C(=O)[C@H](CC(C)C)NC(=O)[C@H](Cc2ccccc2)NC(=O)CN(C)C1=O [DP-421] ([NMeA]TAL[Sar]FL[NMeV]L[NMeL]D-Piperidide; lactam N-11),–,–,29,171
CC(C)C[C@H]1C(=O)N(C)[C@@H](C)C(=O)N[C@@H](C(C)C)C(=O)N[C@H](C(=O)N(C)[C@@H](Cc2ccccc2)C(=O)N[C@@H](C)C(=O)N2CCCCC2)CC(=O)N(C)CCC(=O)N(C)[C@@H](C(C)C)C(=O)N(C)[C@@H](C)C(=O)N[C@@H](Cc2ccccc2)C(=O)N[C@@H]([C@@H](C)O)C(=O)N(C)[C@@H](C)C(=O)N1C [DP-448] ([NMeβAla][NMeV][NMeA]FT[NMeA][NMeL][NMeA]VD[NMeF]A-Piperidide; lactam N-10),–,–,6.2,27
CC(C)C[C@@H]1NC(=O)[C@H](CO)N(C)C(=O)[C@H](CC(C)C)N(C)C(=O)[C@H](CC(C)C)N(C)C(=O)[C@H](CC(C)C)N(C)C(=O)[C@@H](C)NC(=O)C[C@H](C)NC(=O)[C@H](CC(C)C)N(C)C(=O)[C@H](CC(C)C)NC(=O)[C@H](CC(C)C)N(C)C(=O)CN(C)C1=O [DP-639] (cyclo(L[NMeL][β3hA][dA][NMeL][NMeL][NMeL][NMeS]L[Sar][NMeL])),–,–,33,134
CC(C)C[C@H]1C(=O)N(C)[C@@H](C)C(=O)N(C)[C@@H](Cc2ccccc2)C(=O)N[C@@H](COC(C)(C)C)C(=O)N[C@H](C(=O)N2CCCCC2)CC(=O)N(C)CCCC(=O)N[C@@H]([C@@H](C)O)C(=O)N1C [DP-677] ([NMeGABA]T[NMeL][NMeA][NMeF]S(tBu)D-Piperidide; lactam N-7),–,–,7.2,45
CC(C)C[C@@H]1NC(=O)[C@H](CC(C)C)N(C)C(=O)[C@H](C)N(C)C(=O)[C@@H](C(C)C)NC(=O)C[C@@H](C(=O)N2CCCCC2)NC(=O)[C@H](CCC(N)=O)NC(=O)[C@H](CC(C)C)N(C)C(=O)CN(C)C(=O)[C@H](CC(C)C)N(C)C(=O)[C@H](Cc2ccccc2)NC(=O)[C@H](Cc2ccccc2)N(C)C1=O [DP-617] ([dV][NMeA][NMeL]L[NMeF]F[NMeL][Sar][NMeL]QD-Piperidide; lactam N-11),–,–,29,30
CC[C@H](C)[C@H]1C(=O)N(C)[C@@H](C(C)C)C(=O)N(C)[C@@H](CC(C)C)C(=O)N[C@@H]([C@@H](C)O)C(=O)N[C@H](C(=O)N2CCCCC2)CC(=O)N(C)CCCC(=O)N[C@@H](Cc2ccccc2)C(=O)N(C)[C@@H](CC(C)C)C(=O)N(C)[C@@H](C)C(=O)N(C)[C@@H](Cc2ccccc2)C(=O)N[C@@H](C)C(=O)N1C [DP-250] ([NMeGABA]F[NMeL][NMeA][NMeF]A[NMeI][NMeV][NMeL]TD-Piperidide; lactam N-11),–,–,29,42
CC[C@H](C)[C@@H]1NC(=O)[C@H](C(C)C)N(C)C(=O)[C@H](C)N(C)C(=O)[C@H]([C@@H](C)O)NC(=O)[C@@H](C)N(C)C(=O)C[C@@H](C(=O)N2CCCCC2)NC(=O)[C@H](C)NC(=O)[C@H](Cc2ccccc2)N(C)C(=O)CN(C)C(=O)[C@H](CC(C)C)N(C)C1=O [DP-485] ([dNMeA]T[NMeA][NMeV]I[NMeL][Sar][NMeF]AD-Piperidide; lactam N-10),–,–,5.9,45
CC[C@H](C)[C@@H]1NC(=O)[C@H](C)NC(=O)C[C@@H](C(=O)N(C)[C@@H](C)C(=O)N[C@H](C(=O)N2CCC[C@H]2C(=O)N[C@H](C(=O)N[C@@H](C)C(=O)N2CCCCC2)C(C)C)[C@@H](C)CC)NC(=O)[C@@H]2CCCN2C(=O)[C@H](CC(C)C)NC(=O)[C@H](Cc2ccccc2)N(C)C(=O)[C@H]([C@@H](C)O)NC(=O)[C@H](Cc2ccccc2)N(C)C(=O)[C@H](C)N(C)C1=O [DP-665] (AI[NMeA][NMeF]T[NMeF]LPD[NMeA]IPVA-Piperidide; lactam N-9),4,77,–,–
CC[C@H](C)[C@H]1C(=O)N[C@H](C(=O)N2CCCCC2)Cc2ccc(cc2)CCCCCC(=O)N[C@@H](CC(C)C)C(=O)N2CCC[C@H]2C(=O)N[C@@H](C(C)C)C(=O)N[C@@H](Cc2ccccc2)C(=O)N(C)CC(=O)N[C@@H](CC(C)C)C(=O)N[C@@H](C)C(=O)N1C [DP-879] (LPVF[Sar]LA[NMeI][Phe(4-(CH2)5CO)]-Piperidide; lactam N-9),–,–,35,239
CC[C@H](C)[C@H](NC(=O)[C@H](CC(C)C)N(C)C(=O)CN(C)C(=O)[C@H](C)N(C)C(=O)[C@H](Cc1ccccc1)N(C)C(=O)[C@@H]1CC(=O)N[C@H](C(C)C)C(=O)N[C@@H](C(C)C)C(=O)N[C@@H]([C@@H](C)O)C(=O)N[C@@H](CC(C)C)C(=O)N[C@@H](Cc2ccccc2)C(=O)N(C)[C@@H](CC(C)C)C(=O)N(C)[C@@H](Cc2cccc(Cl)c2)C(=O)N1)C(=O)N1CCCCC1 [DP-924] ([dV]VTLF[NMeL][NMePhe(3-Cl)]D[NMeF][NMeA][Sar][NMeL]I-Piperidide; lactam N-8),–,–,0.1,19
CC(C)C[C@@H]1NC(=O)[C@H](Cc2ccccc2)N(C)C(=O)CN(C)C(=O)[C@H]([C@@H](C)O)NC(=O)[C@H](CC(C)C)N(C)C(=O)[C@H](C)NC(=O)C[C@@H](C(=O)N(C)[C@@H](CC(C)C)C(=O)N[C@H](C(=O)N(C)[C@@H](C)C(=O)N[C@@H](C)C(=O)N2CCCCC2)C(C)C)NC1=O [DP-566] (A[NMeL]T[Sar][NMeF]LD[NMeL]V[NMeA]A-Piperidide; lactam N-7),–,–,11,38
